# Molecular target: GCN2 (Homo sapiens (Human), UniProt Q9P2K8)
# Test: GCN2 Biochemical Assay (TR-FRET, GFP-eIF2S1 substrate phosphorylation)
# Conditions: read-out: IC50 (GCN2 Inhibitory Activity)
# Method in brief: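 TR-FRET readout (Ex 340, Em 490/520 nm) after 2–3 h with Tb-labelled phospho-eIF2S1 antibody in stop mix, following a 70 min room-temperature kinase step. Reaction: in-house GCN2, GFP-eIF2S1, ATP, tRNA in Tris pH 7.5 (2× stocks 1.6 nM, 50 nM, 0.2 mM); compounds tested at 10 concentrations, with a phospho-substrate artifact counter-plate.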
# Sequence of GCN2 (Q9P2K8 whole entry): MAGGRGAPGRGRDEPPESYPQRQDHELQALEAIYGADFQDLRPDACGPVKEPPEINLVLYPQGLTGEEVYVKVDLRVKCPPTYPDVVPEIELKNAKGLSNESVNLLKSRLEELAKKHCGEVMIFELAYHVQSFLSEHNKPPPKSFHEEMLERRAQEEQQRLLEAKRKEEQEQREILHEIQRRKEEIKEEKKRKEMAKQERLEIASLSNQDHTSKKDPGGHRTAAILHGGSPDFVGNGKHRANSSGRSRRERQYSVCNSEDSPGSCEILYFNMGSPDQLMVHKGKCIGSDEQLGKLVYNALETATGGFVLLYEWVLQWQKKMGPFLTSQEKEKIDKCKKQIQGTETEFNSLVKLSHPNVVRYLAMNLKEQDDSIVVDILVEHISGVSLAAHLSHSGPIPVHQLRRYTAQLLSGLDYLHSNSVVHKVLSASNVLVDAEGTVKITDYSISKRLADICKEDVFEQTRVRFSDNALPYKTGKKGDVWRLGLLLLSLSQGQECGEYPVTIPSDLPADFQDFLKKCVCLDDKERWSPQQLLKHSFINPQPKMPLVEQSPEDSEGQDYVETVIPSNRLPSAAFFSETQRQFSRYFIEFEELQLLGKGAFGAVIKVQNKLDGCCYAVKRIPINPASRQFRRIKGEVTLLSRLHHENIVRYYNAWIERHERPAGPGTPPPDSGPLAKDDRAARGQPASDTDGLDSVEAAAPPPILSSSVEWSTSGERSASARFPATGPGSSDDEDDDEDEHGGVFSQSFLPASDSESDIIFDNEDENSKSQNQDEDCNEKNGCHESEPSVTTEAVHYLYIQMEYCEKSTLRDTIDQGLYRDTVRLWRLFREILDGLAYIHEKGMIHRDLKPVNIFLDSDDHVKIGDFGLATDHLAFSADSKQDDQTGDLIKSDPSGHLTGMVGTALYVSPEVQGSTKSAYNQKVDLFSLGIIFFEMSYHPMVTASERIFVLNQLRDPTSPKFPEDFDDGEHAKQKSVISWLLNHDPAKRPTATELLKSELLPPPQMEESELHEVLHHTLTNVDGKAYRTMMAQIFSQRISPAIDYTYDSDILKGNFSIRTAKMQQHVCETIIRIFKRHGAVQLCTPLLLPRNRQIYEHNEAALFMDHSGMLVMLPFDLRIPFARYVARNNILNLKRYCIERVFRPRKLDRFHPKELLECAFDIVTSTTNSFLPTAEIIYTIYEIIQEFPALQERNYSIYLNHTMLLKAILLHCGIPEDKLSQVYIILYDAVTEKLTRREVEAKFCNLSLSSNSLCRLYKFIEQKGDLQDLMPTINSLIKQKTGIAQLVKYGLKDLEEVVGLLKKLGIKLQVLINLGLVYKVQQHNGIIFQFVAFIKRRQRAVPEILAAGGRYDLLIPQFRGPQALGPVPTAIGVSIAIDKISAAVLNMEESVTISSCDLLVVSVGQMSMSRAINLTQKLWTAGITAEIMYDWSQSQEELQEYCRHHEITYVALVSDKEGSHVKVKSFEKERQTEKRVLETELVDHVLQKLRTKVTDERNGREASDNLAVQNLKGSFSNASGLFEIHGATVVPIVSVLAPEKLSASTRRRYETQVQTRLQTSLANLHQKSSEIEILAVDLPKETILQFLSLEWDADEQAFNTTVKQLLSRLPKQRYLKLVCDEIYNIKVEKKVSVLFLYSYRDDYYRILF
row,IC50 [nM],SMILES
1,10 to 100,"Cc1cnc(Nc2cc(C)n(C)n2)nc1-c1c[nH]c2c(N3Cc4c(NC(=O)C5Cc6ccccc6C5)cccc4C3=O)cccc12 [Example 314, N-(2-(3-(2-((1,5-dimethyl-1H-pyrazol-3-yl)amino)-5-methylpyrimidin-4-yl)-1H-indol-7-yl)-1-oxoisoindolin-4-yl)-2,3-dihydro-1H-indene-2-carboxamide]"
2,< 10,"Cc1cnc(Nc2cc(C)n(C)n2)nc1-c1c[nH]c2c(N3Cc4c(NC(=O)[C@@H]5CCNC5)cccc4C3=O)cccc12 [Example 315, (R)-N-(2-(3-(2-((1,5-dimethyl-1H-pyrazol-3-yl)amino)-5-methylpyrimidin-4-yl)-1H-indol-7-yl)-1-oxoisoindolin-4-yl)pyrrolidine-3-carboxamide]"
3,10 to 100,"Cc1cnc(Nc2cc(C)n(C)n2)nc1-c1c[nH]c2c(N3Cc4c(NC(=O)[C@H]5CCNC5)cccc4C3=O)cccc12 [Example 316, (S)-N-(2-(3-(2-((1,5-dimethyl-1H-pyrazol-3-yl)amino)-5-methylpyrimidin-4-yl)-1H-indol-7-yl)-1-oxoisoindolin-4-yl)pyrrolidine-3-carboxamide]"
4,< 10,"Cc1cnc(Nc2cc(C)n(C)n2)nc1-c1c[nH]c2c(N3Cc4c(NC(=O)[C@@H]5CCC(=O)N5)cccc4C3=O)cccc12 [Example 317, (S)-N-(2-(3-(2-((1,5-dimethyl-1H-pyrazol-3-yl)amino)-5-methylpyrimidin-4-yl)-1H-indol-7-yl)-1-oxoisoindolin-4-yl)-5-oxopyrrolidine-2-carboxamide]"
5,< 10,"Cc1cnc(Nc2cc(C)n(C)n2)nc1-c1c[nH]c2c(N3Cc4c(NC(=O)[C@H]5CCC(=O)N5)cccc4C3=O)cccc12 [Example 318, (R)-N-(2-(3-(2-((1,5-dimethyl-1H-pyrazol-3-yl)amino)-5-methylpyrimidin-4-yl)-1H-indol-7-yl)-1-oxoisoindolin-4-yl)-5-oxopyrrolidine-2-carboxamide]"
6,< 10,"Cc1cnc(Nc2cc(C)n(C)n2)nc1-c1c[nH]c2c(N3Cc4c(NC(=O)C5CCCNC5)cccc4C3=O)cccc12 (stereo not drawn) [Example 319, N-(2-(3-(2-((1,5-dimethyl-1H-pyrazol-3-yl)amino)-5-methylpyrimidin-4-yl)-1H-indol-7-yl)-1-oxoisoindolin-4-yl)piperidine-3-carboxamide]"
7,< 10,"Cc1cnc(Nc2cc(C)n(C)n2)nc1-c1c[nH]c2c(N3Cc4c(NC(=O)C5CCC(=O)CC5)cccc4C3=O)cccc12 [Example 320, N-(2-(3-(2-((1,5-dimethyl-1H-pyrazol-3-yl)amino)-5-methylpyrimidin-4-yl)-1H-indol-7-yl)-1-oxoisoindolin-4-yl)-4-oxocyclohexane-1-carboxamide]"
8,< 10,"Cc1cnc(Nc2cc(C)n(C)n2)nc1-c1c[nH]c2c(N3Cc4c(NC(=O)c5cnoc5C)cccc4C3=O)cccc12 [Example 321, N-(2-(3-(2-((1,5-dimethyl-1H-pyrazol-3-yl)amino)-5-methylpyrimidin-4-yl)-1H-indol-7-yl)-1-oxoisoindolin-4-yl)-5-methylisoxazole-4-carboxamide]"
9,< 10,"Cc1nc(C(=O)Nc2cccc3c2CN(c2cccc4c(-c5nc(Nc6cc(C)n(C)n6)ncc5C)c[nH]c24)C3=O)co1 [Example 322, N-(2-(3-(2-((1,5-dimethyl-1H-pyrazol-3-yl)amino)-5-methylpyrimidin-4-yl)-1H-indol-7-yl)-1-oxoisoindolin-4-yl)-2-methyloxazole-4-carboxamide]"
10,< 10,"Cc1cnc(Nc2cc(C)n(C)n2)nc1-c1c[nH]c2c(N3Cc4c(NC(=O)c5cnco5)cccc4C3=O)cccc12 [Example 323, N-(2-(3-(2-((1,5-dimethyl-1H-pyrazol-3-yl)amino)-5-methylpyrimidin-4-yl)-1H-indol-7-yl)-1-oxoisoindolin-4-yl)oxazole-5-carboxamide]"

# Second part, the compound before the results:
row,SMILES,IC50 [nM]
1,"Cc1cnc(Nc2cc(C)n(C)n2)nc1-c1c[nH]c2c(N3Cc4c(NC(=O)c5ccccn5)cccc4C3=O)cccc12 [Example 297, N-(2-(3-(2-((1,5-dimethyl-1H-pyrazol-3-yl)amino)-5-methylpyrimidin-4-yl)-1H-indol-7-yl)-1-oxoisoindolin-4-yl)picolinamide]",< 10
2,"Cc1cnc(Nc2cc(C)n(C)n2)nc1-c1c[nH]c2c(N3Cc4c(NC(=O)c5cccnc5)cccc4C3=O)cccc12 [Example 298, N-(2-(3-(2-((1,5-dimethyl-1H-pyrazol-3-yl)amino)-5-methylpyrimidin-4-yl)-1H-indol-7-yl)-1-oxoisoindolin-4-yl)nicotinamide]",< 10
3,"Cc1cnc(Nc2cc(C)n(C)n2)nc1-c1c[nH]c2c(N3Cc4c(NC(=O)c5cocn5)cccc4C3=O)cccc12 [Example 299, N-(2-(3-(2-((1,5-dimethyl-1H-pyrazol-3-yl)amino)-5-methylpyrimidin-4-yl)-1H-indol-7-yl)-1-oxoisoindolin-4-yl)oxazole-4-carboxamide]",< 10
4,"Cc1cnc(Nc2cc(C)n(C)n2)nc1-c1c[nH]c2c(N3Cc4c(NC(=O)C5CC5)cccc4C3=O)cccc12 [Example 300, N-(2-(3-(2-((1,5-dimethyl-1H-pyrazol-3-yl)amino)-5-methylpyrimidin-4-yl)-1H-indol-7-yl)-1-oxoisoindolin-4-yl)cyclopropanecarboxamide]",< 10
5,"Cc1cnc(Nc2cc(C)n(C)n2)nc1-c1c[nH]c2c(N3Cc4c(NC(=O)c5ccncc5)cccc4C3=O)cccc12 [Example 301, N-(2-(3-(2-((1,5-dimethyl-1H-pyrazol-3-yl)amino)-5-methylpyrimidin-4-yl)-1H-indol-7-yl)-1-oxoisoindolin-4-yl)isonicotinamide]",< 10
6,"Cc1cnc(Nc2cc(C)n(C)n2)nc1-c1c[nH]c2c(N3Cc4c(NC(=O)c5ccnnc5)cccc4C3=O)cccc12 [Example 302, N-(2-(3-(2-((1,5-dimethyl-1H-pyrazol-3-yl)amino)-5-methylpyrimidin-4-yl)-1H-indol-7-yl)-1-oxoisoindolin-4-yl)pyridazine-4-carboxamide]",< 10
7,"Cc1cnc(Nc2cc(C)n(C)n2)nc1-c1c[nH]c2c(N3Cc4c(NC(=O)C5CCC(C)CC5)cccc4C3=O)cccc12 (stereo not drawn) [Example 303, N-(2-(3-(2-((1,5-dimethyl-1H-pyrazol-3-yl)amino)-5-methylpyrimidin-4-yl)-1H-indol-7-yl)-1-oxoisoindolin-4-yl)-4-methylcyclohexane-1-carboxamide]",< 10
8,"Cc1cnc(Nc2cc(C)n(C)n2)nc1-c1c[nH]c2c(N3Cc4c(NC(=O)Cc5cccc(O)c5)cccc4C3=O)cccc12 [Example 304, N-(2-(3-(2-((1,5-dimethyl-1H-pyrazol-3-yl)amino)-5-methylpyrimidin-4-yl)-1H-indol-7-yl)-1-oxoisoindolin-4-yl)-2-(3-hydroxyphenyl)acetamide]",< 10
9,"Cc1cnc(Nc2cc(C)n(C)n2)nc1-c1c[nH]c2c(N3Cc4c(NC(=O)Cc5ccccc5)cccc4C3=O)cccc12 [Example 305, N-(2-(3-(2-((1,5-dimethyl-1H-pyrazol-3-yl)amino)-5-methylpyrimidin-4-yl)-1H-indol-7-yl)-1-oxoisoindolin-4-yl)-2-phenylacetamide]",< 10
10,"Cc1cnc(Nc2cc(C)n(C)n2)nc1-c1c[nH]c2c(N3Cc4c(NC(=O)C5CCN(C)CC5)cccc4C3=O)cccc12 [Example 306, N-(2-(3-(2-((1,5-dimethyl-1H-pyrazol-3-yl)amino)-5-methylpyrimidin-4-yl)-1H-indol-7-yl)-1-oxoisoindolin-4-yl)-1-methylpiperidine-4-carboxamide]",< 10
11,"Cc1cnc(Nc2cc(C)n(C)n2)nc1-c1c[nH]c2c(N3Cc4c(NC(=O)C5CCCN(C)C5)cccc4C3=O)cccc12 (stereo not drawn) [Example 307, N-(2-(3-(2-((1,5-dimethyl-1H-pyrazol-3-yl)amino)-5-methylpyrimidin-4-yl)-1H-indol-7-yl)-1-oxoisoindolin-4-yl)-1-methylpiperidine-3-carboxamide]",< 10
12,"Cc1cnc(Nc2cc(C)n(C)n2)nc1-c1c[nH]c2c(N3Cc4c(NC(=O)C5CCC(=O)N5)cccc4C3=O)cccc12 (stereo not drawn) [Example 308, N-(2-(3-(2-((1,5-dimethyl-1H-pyrazol-3-yl)amino)-5-methylpyrimidin-4-yl)-1H-indol-7-yl)-1-oxoisoindolin-4-yl)-5-oxopyrrolidine-2-carboxamide]",< 10
13,"Cc1cnc(Nc2cc(C)n(C)n2)nc1-c1c[nH]c2c(N3Cc4c(NC(=O)C5CC=CCC5)cccc4C3=O)cccc12 (stereo not drawn) [Example 309, N-(2-(3-(2-((1,5-dimethyl-1H-pyrazol-3-yl)amino)-5-methylpyrimidin-4-yl)-1H-indol-7-yl)-1-oxoisoindolin-4-yl)cyclohex-3-ene-1-carboxamide]",10 to 100
14,"Cc1cnc(Nc2cc(C)n(C)n2)nc1-c1c[nH]c2c(N3Cc4c(NC(=O)C5CC=CC5)cccc4C3=O)cccc12 [Example 310, N-(2-(3-(2-((1,5-dimethyl-1H-pyrazol-3-yl)amino)-5-methylpyrimidin-4-yl)-1H-indol-7-yl)-1-oxoisoindolin-4-yl)cyclopent-3-ene-1-carboxamide]",< 10
15,"Cc1cnc(Nc2cc(C)n(C)n2)nc1-c1c[nH]c2c(N3Cc4c(NC(=O)C5(C)CC=CC5)cccc4C3=O)cccc12 [Example 311, N-(2-(3-(2-((1,5-dimethyl-1H-pyrazol-3-yl)amino)-5-methylpyrimidin-4-yl)-1H-indol-7-yl)-1-oxoisoindolin-4-yl)-1-methylcyclopent-3-ene-1-carboxamide]",10 to 100
16,"Cc1cnc(Nc2cc(C)n(C)n2)nc1-c1c[nH]c2c(N3Cc4c(NC(=O)C5CCCCCC5)cccc4C3=O)cccc12 [Example 312, N-(2-(3-(2-((1,5-dimethyl-1H-pyrazol-3-yl)amino)-5-methylpyrimidin-4-yl)-1H-indol-7-yl)-1-oxoisoindolin-4-yl)cycloheptanecarboxamide]",10 to 100
17,"Cc1cnc(Nc2cc(C)n(C)n2)nc1-c1c[nH]c2c(N3Cc4c(NC(=O)N5CCNC5=O)cccc4C3=O)cccc12 [Example 313, N-(2-(3-(2-((1,5-dimethyl-1H-pyrazol-3-yl)amino)-5-methylpyrimidin-4-yl)-1H-indol-7-yl)-1-oxoisoindolin-4-yl)-2-oxoimidazolidine-1-carboxamide]",< 10
